Assay results published in patent publication US20230322785A1, “ADENOSINE A2A AND A2B RECEPTOR DUAL ANTAGONISTS FOR IMMUNO-ONCOLOGY” (Merck Sharp & Dohme LLC, priority 2020, published 2023).
pIC50: −log10 of the molar value.

target: T1, human A2A adenosine receptor (Homo sapiens, UniProt P29274); assay: A2A binding affinity, Method (A): radioligand filtration binding with [3H]SCH58261; conditions: membranes of HEK293 or CHO cells expressing the human receptor
T1 construct: expressed in transfected cells; host or cells: HEK293 or CHO cells
Source text: Method (A) describes the procedure used to measure A2A binding affinity using radioligand binding. Method (B) describes the procedure used to measure A2A binding affinity using SPA technology. The method used to measure A2B binding affinity is also described below. The method used to determine the A2A IC50 value reported for each compound in the table is indicated next to the reported value. The A2B IC50 value measured using the A2B binding affinity assay is shown in the table next to the compound under the corresponding A2A value.
The A2A receptor affinity binding assay measured the amount of binding of a tritiated ligand with high affinity for the A2A adenosine receptor to membranes made from HEK293 or CHO cells recombinantly expressing the human A2A adenosine receptor, in the presence of varying concentrations of a compound of the invention. The data were generated using either filtration binding or a homogenous scintillation proximity assay (SPA).
Method (A): Measurement of A2A Binding Affinity Using Radioligand Binding
148 µL (5 µg/mL) membranes (Perkin Elmer, Cat. No. RBHA2aM400UA) and 2 µL compounds of the invention to be tested (test compound) were transferred to individual wells of a 96-well polypropylene assay plate and incubated for 15 to 30 min at room temperature. [^3H] SCH58261 ((7-(2-phenylethyl)-5-amino-2-(2-furyl)-pyrazolo-[4,3-e]-1,2,4-triazolo[1,5-c]pyrimidine)) was diluted in assay buffer (50 mM Tris pH 7.4, 10 mM MgCl2, 0.005% Tween20) to a concentration of 4 nM and 50 µL transferred to each well of the assay plate. To define total and non-specific binding, wells containing 1% DMSO and 1 µM ZM241385 (Tocris Bioscience, Cat. No. 1036) respectively, were also included. The assay plate was incubated at room temperature for 60 min with agitation. Using a FilterMate Harvester® (Perkin Elmer), the contents of the assay plate were filtered through a UniFilter-96® PEI coated plate (Perkin Elmer Cat. No. 6005274 or 6005277). Filtering was achieved by aspirating the contents of the assay plate for 5 sec, then washing and aspirating the contents three times with ice-cooled wash buffer (50 mM Tris-HCl pH 7.4, 150 mM NaCl) and allowing the vacuum manifold to dry the plate for 30 sec. The filter plate was incubated for at least 1 h at 55° C. and allowed to dry. The bottom of the filter plate was sealed with backing tape. 40 µL Ultima Gold™ (Perkin Elmer, Cat. No. 6013329) was added to each well of the filter plate and the top of the plate was sealed with TopSeal-A PLUS® clear plate seal (Perkin Elmer, Cat. No. 6050185). The plate was incubated for at least 20 min, and then the amount of radioactivity remaining in each well was determined using a TopCount® (Perkin Elmer) scintillation counter. After normalization to total and non-specific binding, the percent effect at each compound concentration was calculated. The plot of percent effect versus the log of compound concentration was analyzed electronically using a 4-parameter logistic fit based on the Levenberg-Marquardt algorithm to generate IC50 values.

T1 sequence (P29274 whole entry): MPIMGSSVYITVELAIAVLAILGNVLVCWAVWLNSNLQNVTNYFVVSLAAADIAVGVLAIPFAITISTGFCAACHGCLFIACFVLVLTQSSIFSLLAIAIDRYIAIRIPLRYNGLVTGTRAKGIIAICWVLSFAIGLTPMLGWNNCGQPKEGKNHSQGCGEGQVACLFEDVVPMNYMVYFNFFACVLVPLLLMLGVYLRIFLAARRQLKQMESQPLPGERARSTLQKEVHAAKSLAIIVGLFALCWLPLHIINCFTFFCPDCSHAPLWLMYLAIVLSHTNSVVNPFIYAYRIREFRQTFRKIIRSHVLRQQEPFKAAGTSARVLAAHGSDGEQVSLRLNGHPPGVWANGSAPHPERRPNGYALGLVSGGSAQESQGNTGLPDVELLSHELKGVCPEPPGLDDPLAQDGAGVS

pIC50 | SMILES
8.60 | COc1cc(F)cc2c1nc(N)n1nc(CNC(=O)c3ccc(C(C)(C)O)cc3Cl)nc21 [Entry 3.5]
9.22 | COc1cccc2c1nc(N)n1nc(CNC(=O)c3ccc(C(C)(C)O)cc3)nc21 [Example 2.1, N-((5-amino-7-methoxy-[1,2,4]triazolo[1,5-c]quinazolin-2-yl)methyl)-4-(2-hydroxypropan-2-yl)benzamide]
9.52 | COc1cccc2c1nc(N)n1nc(CNC(=O)c3ccc(C(O)(C(F)(F)F)C(F)(F)F)cc3)nc21 [Example 2.6, N-((5-amino-7-methoxy-[1,2,4]triazolo[1,5-c]quinazolin-2-yl)methyl)-4-(1,1,1,3,3,3-hexafluoro-2-hydroxypropan-2-yl)benzamide]
7.95 | COc1cc(F)cc2c1nc(N)n1nc(CNC(=O)c3c(F)cc(C(C)(C)O)cc3F)nc21 [Example 3.4, N-((5-amino-9-fluoro-7-methoxy-[1,2,4]triazolo[1,5-c]quinazolin-2-yl)methyl)-2,6-difluoro-4-(2-hydroxypropan-2-yl)benzamide]
8.85 | COc1cccc2c1nc(N)n1nc(CNC(=O)c3ccc(C(C)(C)O)cn3)nc21 [Example 4.2, N-((5-amino-7-methoxy-[1,2,4]triazolo[1,5-c]quinazolin-2-yl)methyl)-5-(2-hydroxypropan-2-yl)picolinamide]
6.20 | COc1cccc2c1nc(N)n1nc(CNC(=O)c3ccc(S(N)(=O)=O)cc3)nc21 [Example 4.10, N-((5-amino-7-methoxy-[1,2,4]triazolo[1,5-c]quinazolin-2-y1)methyl)-4-sulfamoylbenzamide]
8.82 | COc1cccc2c1nc(N)n1nc(CNC(=O)c3ncc(C(C)(C)O)cc3Br)nc21 [Example 4.11, N-((5-amino-7-methoxy-[1,2,4]triazolo[1,5-c]quinazolin-2-yl)methyl)-3-bromo-5-(2-hydroxypropan-2-yl)picolinamide]
8.22 | COc1cccc2c1nc(N)n1nc(CN3CCO[C@@H](Cc4ccccc4)C3)nc21 [Example 8.1, (S)-2-((2-benzylmorpholino)methyl)-7-methoxy-[1,2,4]triazolo[1,5-c]quinazolin-5-amine]

The remaining lines, values behind:

SMILES | pIC50
COc1cccc2c1nc(N)n1nc(CNC(=O)c3ccc(C(C)(O)C(F)(F)F)cc3)nc21 (single isomer, unassigned) [Example 2.7A, (S or R)-N-((5-amino-7-methoxy-[1,2,4]triazolo[1,5-c]quinazolin-2-yl)methyl)-4-(1,1,1-trifluoro-2-hydroxypropan-2-yl)benzamide] | 9.52
COc1cccc2c1nc(N)n1nc(CNC(=O)c3ccc(C(C)(O)C(F)(F)F)cc3)nc21 (single isomer, unassigned) [Example 2.7B, (R or S)-N-((5-amino-7-methoxy-[1,2,4]triazolo[1,5-c]quinazolin-2-yl)methyl)-4-(1,1,1-trifluoro-2-hydroxypropan-2-yl)benzamide] | 9.30
COc1cccc2c1nc(N)n1nc(CNC3CCc4c(nnn4C4CC(F)(F)C4)C3)nc21 (single isomer, unassigned) [Example 11.2A, (S or R)-2-(((1-(3,3-difluorocyclobutyl)-4,5,6,7-tetrahydro-1H-benzo[d][1,2,3]triazol-5-yl)amino)methyl)-7-methoxy-[1,2,4]triazolo[1,5-c]quinazolin-5-amine] | 9.22
COc1cccc2c1nc(N)n1nc(CNC3CCc4c(nnn4C4CC(F)(F)C4)C3)nc21 (single isomer, unassigned) [Example 11.2B, (R or S)-2-(((1-(3,3-difluorocyclobutyl)-4,5,6,7-tetrahydro-1H-benzo[d][1,2,3]triazol-5-yl)amino)methyl)-7-methoxy-[1,2,4]triazolo[1,5-c]quinazolin-5-amine] | 8.47
COc1cc(F)cc2c1nc(N)n1nc(CNC(c3ccc(C(C)(C)O)cc3)C(F)(F)F)nc21 (single isomer, unassigned) [Example 25.3A, (S or R)-2-(4-(1-(((5-amino-9-fluoro-7-methoxy-[1,2,4]triazolo[1,5-c]quinazolin-2-yl)methyl)amino)-2,2,2-trifluoroethyl)phenyl)propan-2-ol] | 7.71
COc1cc(F)cc2c1nc(N)n1nc(CNC(c3ccc(C(C)(C)O)cc3)C(F)(F)F)nc21 (single isomer, unassigned) [Example 25.3B, (R or S)-2-(4-(1-(((5-amino-9-fluoro-7-methoxy-[1,2,4]triazolo[1,5-c]quinazolin-2-yl)methyl)amino)-2,2,2-trifluoroethyl)phenyl)propan-2-ol] | 7.53
COc1cccc2c1nc(N)n1nc(CNC(=O)c3c(C)cc(C(C)(C)O)cc3C)nc21 [Entry 1.3] | 7.99
COc1cccc2c1nc(N)n1nc(CN(C)C(=O)c3ccc(C(C)(C)O)cc3)nc21 [Example 1.2, N-((5-amino-7-methoxy-[1,2,4]triazolo[1,5-c]quinazolin-2-yl)methyl)-4-(2-hydroxypropan-2-yl)-N-methylbenzamide] | 9.52

target: T1, human A2A adenosine receptor; assay: A2A binding affinity, Method (B): scintillation proximity assay (SPA) with [3H]SCH58261; conditions: membranes of HEK293 or CHO cells expressing the human receptor
Outline: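 Membranes from HEK293 or CHO cells expressing the receptor were pretreated with 20 µg/mL adenosine deaminase for 15 min, then bound to WGA SPA beads. [3H]SCH58261 was added at 1.25 nM in Ca/Mg-free DPBS with 10 mM MgCl2, incubated 1 h at RT, then settled 1 h. Non-specific binding used 1 µM CGS 15943. IC50 came from 4-parameter logistic fits.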

pIC50 | SMILES
7.95 | C=CCN(Cc1ccc(C(F)(F)F)cc1)Cc1nc2c3cccc(OC)c3nc(N)n2n1 [Example 21.1, 2-((allyl(4-(trifluoromethyl)benzyl)amino)methyl)-7-methoxy-[1,2,4]triazolo[1,5-c]quinazolin-5-amine]
7.78 | COc1cccc2c1nc(N)n1nc(CCNCc3ccc(C(F)(F)F)cc3)nc21 [Example 22.3, 7-methoxy-2-(2-((4-(trifluoromethyl)benzyl)amino)ethyl)-[1,2,4]triazolo[1,5-c]quinazolin-5-amine]
7.80 | COc1cccc2c1nc(N)n1nc(CCN[C@H](C)c3ccc(C(F)(F)F)cc3)nc21 [Example 22.4, (R)-7-methoxy-2-(2-((1-(4-(trifluoromethyl)phenyl)ethyl)amino)ethyl)-[1,2,4]triazolo[1,5-c]quinazolin-5-amine]
8.39 | COc1cccc2c1nc(N)n1nc(CCN(C)Cc3ccc(C(F)(F)F)cc3)nc21 [Example 22.5, 7-methoxy-2-(2-(methyl(4-(trifluoromethyl)benzyl)amino)ethyl)-[1,2,4]triazolo[1,5-c]quinazolin-5-amine]
8.01 | COc1cccc2c1nc(N)n1nc(CCNCc3ccccc3C(F)(F)F)nc21 [Example 22.6, 7-methoxy-2-(2-((2-(trifluoromethyl)benzyl)amino)ethyl)-[1,2,4]triazolo[1,5-c]quinazolin-5-amine]
7.56 | COc1cccc2c1nc(N)n1nc(CCN[C@@H](C)c3ccc(C(F)(F)F)cc3)nc21 [Example 22.7, (S)-7-methoxy-2-(2-((1-(4-(trifluoromethyl)phenyl)ethyl)amino)ethyl)-[1,2,4]triazolo[1,5-c]quinazolin-5-amine]
7.96 | COc1cccc2c1nc(N)n1nc(CCNCC(F)(F)C(F)(F)F)nc21 [Example 22.8, 7-methoxy-2-(2-((2,2,3,3,3-pentafluoropropyl)amino)ethyl)-[1,2,4]triazolo[1,5-c] quinazolin-5-amine]
7.91 | COc1cccc2c1nc(N)n1nc(CCNCC(C)(F)F)nc21 [Example 23.3, 2-(2-((2,2-difluoropropyl)amino)ethyl)-7-methoxy-[1,2,4]triazolo[1,5-c]quinazolin-5-amine]
8.24 | COc1cccc2c1nc(N)n1nc(CCN[C@H](C)C(F)(F)F)nc21 [Example 23.4, (R)-7-methoxy-2-(2-((1,1,1-trifluoropropan-2-yl)amino)ethyl)-[1,2,4]triazolo[1,5-c]quinazolin-5-amine]

SMILES | pIC50
COc1cccc2c1nc(N)n1nc(C[C@@H](C)NCc3oc(C)nc3C)nc21 [Example 24.3, (R)-2-(2-(((2,4-dimethyloxazol-5-yl)methyl)amino)propyl)-7-methoxy-[1,2,4]triazolo[1,5-c]quinazolin-5-amine] | 7.95
